Laboratory results from patent US20120053197A1, “TRICYCLIC PYRIDINE DERIVATIVES, MEDICAMENTS CONTAINING SUCH COMPOUNDS, THEIR USE AND PROCESS FOR THEIR PREPARATION” (BOEHRINGER INGELHEIM INTERNATIONAL GMBH, priority 2010, published 2012).

Target: T1, recombinant human CETP (Homo sapiens, UniProt P11597)
T1 construct: made in house; host or cells: CHO cells (protein secreted into conditioned medium)
T1 sequence (P11597 18-493): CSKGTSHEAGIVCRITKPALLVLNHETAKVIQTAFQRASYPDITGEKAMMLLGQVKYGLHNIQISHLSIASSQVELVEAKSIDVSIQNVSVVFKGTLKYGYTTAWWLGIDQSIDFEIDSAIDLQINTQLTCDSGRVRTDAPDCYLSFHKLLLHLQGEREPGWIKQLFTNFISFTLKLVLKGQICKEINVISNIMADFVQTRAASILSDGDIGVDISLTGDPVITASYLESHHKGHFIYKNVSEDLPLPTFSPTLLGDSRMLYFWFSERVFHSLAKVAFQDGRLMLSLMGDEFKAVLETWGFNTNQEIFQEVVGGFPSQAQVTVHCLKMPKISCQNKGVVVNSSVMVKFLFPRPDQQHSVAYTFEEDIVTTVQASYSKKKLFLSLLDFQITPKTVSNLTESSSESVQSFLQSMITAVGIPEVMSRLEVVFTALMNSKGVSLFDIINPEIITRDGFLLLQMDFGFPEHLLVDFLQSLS
Test: CETP in vitro fluorometric assay (Roar Biomedical), cholesterol ester transfer from HDL to LDL
Format: biochemical
Conditions: recombinant human CETP from CHO cells; 3 hours at 37° C.; fluorescence ex 485 nm / em 535 nm; compound concentrations between 1 nM and 30 μM; read-out: IC50 values for inhibition of CETP
Procedure: CETP inhibitory activity of compounds of the present invention can be determined in a fluorometric assay puchased from Roar Biomedical, Inc. (New York, N.Y., USA). […] Recombinant human CETP was partially purified from medium conditioned by CETP expressing CHO cells. In a 384 well format 2.5 μl of compound solution in DMSO was combined with 2 μl of donor solution, 2 μl of acceptor solution and 0.8 μl of recombinant human CETP solution in a total volume of 100 μl with assay buffer and incubated for 3 hours at 37° C. The fluorescence intensity was measured at excitation wavelength of 485 nm and emission wavelength of 535 nm. IC50 values are calculated from dose effect curves from compound concentrations between 1 nM and 30 μM.

| Structure (SMILES) | IC50 |
| --- | --- |
| CC1(C)Cc2nc(C3CCOCC3)c3c(c2[C@@H](O)C1)C1(CCOCC1)O[C@@H]3c1ccc(C(F)(F)F)cc1 [1(39), (3R,9S)-7,7-dimethyl-4-(tetrahydro-2H-pyran-4-yl)-3-(4-(trifluoromethyl)phenyl)-2′,3′,5′,6,6′,7,8,9-octahydro-3H-spiro[furo[3,4-c]quinoline-1,4′-pyran]-9-ol] | 56 nM |
| CC1(C)Cc2nc(C3CCCC3)c3c(c2[C@@H](O)C1)C(C)(C)O[C@@H]3c1ccc(C(C)(C)C)cc1 [1(19), (3R,9S)-3-(4-tert-butylphenyl)-4-cyclopentyl-1,1,7,7-tetramethyl-1,3,6,7,8,9-hexahydrofuro[3,4-c]quinolin-9-ol] | 351 nM |
| CC(C)c1nc2c(c3c1[C@@H](c1ccc(C(F)(F)F)nc1)OC31CCCC1)[C@@H](O)CC(C)(C)C2 [1(12), (3′R,9′S)-4′-isopropyl-7′,7′-dimethyl-3′-(6-(trifluoromethyl)pyridin-3-yl)-6′,7′,8′,9′-tetrahydro-3′H-spiro[cyclopentane-1,1′-furo[3,4-c]quinolin]-9′-ol] | 150 nM |
| CC1(C)Cc2nc(C3CCCC3)c3c(c2[C@@H](O)C1)C1(CCCC1)O[C@@H]3c1ccc(F)cc1 [1(10), (3′R,9′S)-4′-cyclopentyl-3′-(4-fluorophenyl)-7′,7′-dimethyl-6′,7′,8′,9′-tetrahydro-3′H-spiro[cyclopentane-1,1′-furo[3,4-c]quinolin]-9′-ol] | 360 nM |
| CC(C)c1nc2c(c3c1[C@@H](c1ccc(C(F)(F)F)cc1)OC31CCCC1)[C@@H](O)CC1(CCC1)C2 [1(15), (3′R,9′S)-4′-isopropyl-7′,7′-(propan-1,3-diyl)-3′-(4-(trifluoromethyl)phenyl)-6′,7′,8′,9′-tetrahydro-3′H-spiro[cyclopentane-1,1′-furo[3,4-c]quinolin]-9′-ol] | 21 nM |
| CC(C)c1nc2c(c3c1[C@@H](c1ccc(Cl)cc1)OC31CCCC1)[C@@H](O)CC(C)(C)C2 [1(9), (3′R,9′S)-3′-(4-chlorophenyl)-4′-isopropyl-7′,7′-dimethyl-6′,7′,8′,9′-tetrahydro-3′H-spiro[cyclopentane-1,1′-furo[3,4-c]quinolin]-9′-ol] | 148 nM |
| CC(C)c1nc2c(c3c1[C@@H](c1ccc(C(F)(F)F)cn1)OC31CCCC1)[C@@H](O)CC(C)(C)C2 [1(21), (3′S,9′S)-4′-isopropyl-7′,7′-dimethyl-3′-(5-(trifluoromethyl)pyridin-2-yl)-6′,7′,8′,9′-tetrahydro-3′H-spiro[cyclopentane-1,1′-furo[3,4-c]quinolin]-9′-ol] | 124 nM |
| CC1(C)Cc2nc(C3CCOCC3)c3c(c2[C@@H](O)C1)C1(CCCC1)O[C@@H]3c1ccc(C(F)(F)F)cc1 [1(5), (3′R,9′S)-7′,7′-dimethyl-4′-(tetrahydro-2H-pyran-4-yl)-3′-(4-(trifluoromethyl)phenyl)-6′,7′,8′,9′-tetrahydro-3′H-spiro[cyclopentane-1,1′-furo[3,4-c]quinolin]-9′-ol] | 42 nM |
| CC(C)c1ccc([C@H]2OC3(CCCC3)c3c2c(C2CCCC2)nc2c3[C@@H](O)CC(C)(C)C2)cc1 [1(29), (3′R,9′S)-4′-cyclopentyl-3′-(4-isopropylphenyl)-7′,7′-dimethyl-6′,7′,8′,9′-tetrahydro-3′H-spiro[cyclopentane-1,1′-furo[3,4-c]quinolin]-9′-ol] | 88 nM |
| CC(C)(C)c1ccc([C@H]2OC3(CCCC3)c3c2c(C2CCOCC2)nc2c3[C@@H](O)CC(C)(C)[C@H]2O)cc1 [Example 4, (3′R,6′R,9′S)-3′-(4-tert-butylphenyl)-7′,7′-dimethyl-4′-(tetrahydro-2H-pyran-4-yl)-6′,7′,8′,9′-tetrahydro-3′H-spiro[cyclopentane-1,1′-furo[3,4-c]quinoline]-6′,9′-diol] | 62 nM |
| CC1(C)Cc2nc(C3CCOCC3)c3c(c2[C@@H](O)C1)C1(CCCC1)O[C@@H]3c1ccc(S(F)(F)(F)(F)F)cc1 [1(43), (3′R,9′S)-7′,7′-dimethyl-4′-(tetrahydro-2H-pyran-4-yl)-3′-(4-(pentafluorosulfanyl)phenyl)-6′,7′,8′,9′-tetrahydro-3′H-spiro[cyclopentane-1,1′-furo[3,4-c]quinolin]-9′-ol] | 22 nM |

More lines, now with the values ahead:

| IC50 | Structure (SMILES) |
| --- | --- |
| 62 nM | CC(C)c1nc2c(c3c1[C@@H](c1ccc(C(C)(F)F)cc1)OC31CCCC1)[C@@H](O)CC(C)(C)C2 [1(32), (3′R,9′S)-3′-(4-(1,1-difluoroethyl)phenyl)-4′-isopropyl-7′,7′-dimethyl-6′,7′,8′,9′-tetrahydro-3′H-spiro[cyclopentane-1,1′-furo[3,4-c]quinolin]-9′-ol] |
| 20 nM | CC(C)c1nc2c(c3c1[C@@H](c1ccc(C(F)(F)F)cc1)OC31CCCC1)[C@@H](O)CC(C)(C)[C@H]2O [Example 3, (3′R,6′R,9′S)-4′-isopropyl-7′,7′-dimethyl-3′-(4-(trifluoromethyl)phenyl)-6′,7′,8′,9′-tetrahydro-3′H-spiro[cyclopentane-1,1′-furo[3,4-c]quinoline]-6′,9′-diol] |
| 51 nM | CC1(C)Cc2nc(C3CCC3)c3c(c2[C@@H](O)C1)C1(CCCC1)O[C@@H]3c1ccc(C(F)(F)F)cc1 [1(28), (3′R,9′S)-4′-cyclobutyl-7′,7′-dimethyl-3′-(4-(trifluoromethyl)phenyl)-6′,7′,8′,9′-tetrahydro-3′H-spiro[cyclopentane-1,1′-furo[3,4-c]quinolin]-9′-ol] |
| 137 nM | CC(=O)O[C@@H]1c2nc(C(C)C)c3c(c2[C@@H](O)CC1(C)C)C1(CCCC1)O[C@@H]3c1ccc(C(F)(F)F)cc1 [1(34), (3′R,6′S,9′S)-9′-hydroxy-4′-isopropyl-7′,7′-dimethyl-3′-(4-(trifluoromethyl)phenyl)-6′,7′,8′,9′-tetrahydro-3′H-spiro[cyclopentane-1,1′-furo[3,4-c]quinoline]-6′-yl acetate] |
| 394 nM | CC(C)c1nc2c(c3c1[C@@H](c1ccc(C(F)(F)F)cc1)OC31CCCC1)[C@@H](O)CC(C)(C)[C@@H]2O [3(1), (3′R,6′S,9′S)-4′-isopropyl-7′,7′-dimethyl-3′-(4-(trifluoromethyl)phenyl)-6′,7′,8′,9′-tetrahydro-3′H-spiro[cyclopentane-1,1′-furo[3,4-c]quinoline]-6′,9′-diol] |
| 131 nM | CC(C)c1nc2c(c3c1[C@@H](c1ccc(OC(F)(F)F)cc1)OC31CCCC1)[C@@H](O)CC(C)(C)C2 [1(17), (3′R,9′S)-4′-isopropyl-7′,7′-dimethyl-3′-(4-(trifluoromethoxy)phenyl)-6′,7′,8′,9′-tetrahydro-3′H-spiro[cyclopentane-1,1′-furo[3,4-c]quinolin]-9′-ol] |
| 229 nM | CC(=O)O[C@H]1c2nc(C(C)C)c3c(c2[C@@H](O)CC1(C)C)C1(CCCC1)O[C@@H]3c1ccc(C(F)(F)F)cc1 [1(33), (3′R,6′R,9′S)-9′-hydroxy-4′-isopropyl-7′,7′-dimethyl-3′-(4-(trifluoromethyl)phenyl)-6′,7′,8′,9′-tetrahydro-3′H-spiro[cyclopentane-1,1′-furo[3,4-c]quinoline]-6′-yl acetate] |
| 25 nM | CC(C)c1nc2c(c3c1[C@@H](c1ccc(C(C)(C)C)cc1)OC31CCOCC1)[C@@H](O)CC(C)(C)C2 [1(42), (3R,9S)-3-(4-tert-butylphenyl)-4-isopropyl-7,7-dimethyl-2′,3′,5′,6,6′,7,8,9-octahydro-3H-spiro[furo[3,4-c]quinoline-1,4′-pyran]-9-ol] |
| 1430 nM | CC(C)c1nc2c(c3c1[C@H](c1ccc(C(F)(F)F)cc1)OC31CCCC1)[C@@H](O)CC(C)(C)C2 [1(1), (3′S,9′S)-4′-isopropyl-7′,7′-dimethyl-3′-(4-(trifluoromethyl)phenyl)-6′,7′,8′,9′-tetrahydro-3′H-spiro[cyclopentane-1,1′-furo[3,4-c]quinolin]-9′-ol] |
| 772 nM | CC(C)c1nc2c(c3c1[C@@H](c1cnc(C(C)(C)C)nc1)OC31CCCC1)[C@@H](O)CC(C)(C)C2 [1(25), (3′R,9′S)-3′-(2-tert-butylpyrimidin-5-yl)-4′-isopropyl-7′,7′-dimethyl-6′,7′,8′,9′-tetrahydro-3′H-spiro[cyclopentane-1,1′-furo[3,4-c]quinolin]-9′-ol] |
| 69 nM | CC(C)c1nc2c(c3c1[C@@H](c1ccc(C4(C#N)CC4)cc1)OC31CCCC1)[C@@H](O)CC(C)(C)C2 [1(44), 1-(4-((3′R,9′S)-9′-hydroxy-4′-isopropyl-7′,7′-dimethyl-6′,7′,8′,9′-tetrahydro-3′H-spiro[cyclopentane-1,1′-furo[3,4-c]quinoline]-3′-yl)phenyl)cyclopropanecarbonitrile] |
| 418 nM | CCc1nc2c(c3c1[C@@H](c1ccc(C(F)(F)F)cc1)OC31CCCC1)[C@@H](O)CC(C)(C)C2 [1(37), (3′R,9′S)-4′-ethyl-7′,7′-dimethyl-3′-(4-(trifluoromethyl)phenyl)-6′,7′,8′,9′-tetrahydro-3′H-spiro[cyclopentane-1,1′-furo[3,4-c]quinolin]-9′-ol] |
